Measured values as given in patent US8323704B2, “Process for preparation of extract of Decalepis hamiltonii having antioxidant activity” (Council of Scientific and Industrial Research, priority 2003, dated 2012).

How the values were obtained:
[1] = Antioxidant assay using β-Carotene Linoleate model System (β CLAMS); format: biochemical; conditions: bleaching of β carotene, 180 min, 50° C.
Text: Antioxidant assay using β-Carotene Linoleate model System (β CLAMS) (Hidalgo et al., 1994)
This is one of the rapid methods to screen antioxidants, which is mainly based on principle that Linoleic acid which is an unsaturated fatty acid gets oxidized by “Reactive Oxgen Species” (ROS) produced by oxygenated water. The products formed will initiate the β-Carotene oxidation, which leads to discoloration.
Due to insolubility of β-Carotene in water, it is first made into emulsion. β-Carotene is dissolved in chloroform and using Tween-40 (Polyoxyethylene sorbotan manonitrate) as surfactant, it was mixed with Linoleic acid to form emulsion. The resulting mixture is diluted with triple distilled water (1 part) and mixed well. This emulsion is further made up with oxygenated water (4 parts) which initiates the process of oxidation immediately. It is transferred to tubes containing samples. Initial (zero min) reading is read, followed by recording the absorbance at 15 min intervals at 470 nm. All tubes were placed in water bath at 50° C. throughout the experiment.
β Carotene linoleic acid emulsion mixture—100 ml (Jayaprakash et al., 2000) […]
[…] Absorbance of all samples were taken at 470 nm at Zero time and tubes were placed at 50° C. in water bath., Measurement of Absorbance was continued at an interval of 15 minutes, till the colour of β carotene disappeared in the control reaction (t=180 min). […] Dose response of antioxidant activity for various extracts was determined at different concentrations.
The antioxidant activity (% AA) of extracts was evaluated in terms of bleaching of β Carotene using the following formula (Hidalgo et al, 1994).
Each experiment was carried out in triplicate and the deviation of absorbance value was less than 10%. % AA=100[1-(A^0-A^t)/A^00-A^0t)] […]
A^0=Zero time absorbance of sample
A^t=Absorbance of sample after incubation for 180 min
A^00=Zero time absorbance of control
A^t0=Absorbance of control after incubation for 180 min.
And results were expressed as % Antioxidant activity.

[2] = Free radical scavenging activity using D.P.P.H as stable free radical; format: biochemical; conditions: 20 minutes, 517 nm
Experimental: Schematic representation of chemically stable radical scavenging activity using D.P.P.H as stable free radical: (Blios, 1958)
Free radical scavenging potentials of the extracts were tested against a methanolic solution of α,α-diphenyl-β-picryl hydrazyl (D.P.P.H). Antioxidants reacts with D.P.P.H. and convert it to α,α-diphenyl-β-picryl hydrazine. The degree of discoloration indicates the scavenging potentials of the antioxidant extract. The change in the absorbance produced at 517 nm has been used as a measure of antioxidant activity.
• Methanolic solution of D.P.P.H (100 μM): 39.4 mg of D.P.P.H was dissolved in one liter of analytical grade methanol. • Preparation of the extract solutions: 55 mg of the extract was dissolved in 10 ml of methanol and filtered; the filtrate was used for the experiments. Method:
Aliquots of 0.025, 0.05, 0.1 ml of extracts and standard were taken in different test tubes. To this 5 ml of methanolic solution of D.P.P.H was added, shaken well and the mixture was allowed to stand at room temperature for 20 minutes. The blank was prepared as above without extract. […] The absorbance of blank was first noted at 517 nm. The change of absorbance of the samples was measured.
Scavenging activity was expressed as the inhibition percentage calculated using the following formula, […]

Compound: COc1ccc(O)c(C(C)(C)C)c1 [Standard BHA, butylated hydroxy anisole]
- % Activity ± S.D (antioxidant activity, % AA) ([1]; 100 ppm): 84.3%
- % Activity ± S.D (antioxidant activity, % AA) ([1]; 500 ppm): 88.6%
- % Activity ± S.D (antioxidant activity, % AA) ([1]; 1000 ppm): 90.1%

Compound: α,α-diphenyl-β-picryl hydrazyl [Standard D.P.P.H]
- % Activity ± S.D (anti-radical activity, inhibition percentage) ([2]; 100 ppm): 88.3%
- % Activity ± S.D (anti-radical activity, inhibition percentage) ([2]; 500 ppm): 92.6%
- % Activity ± S.D (anti-radical activity, inhibition percentage) ([2]; 1000 ppm): 94.3%
